{"source": "paper PMC8583936", "about": "“Machine Learning Assisted Approach for Finding Novel High Activity Agonists of Human Ectopic Olfactory Receptors” (International Journal of Molecular Sciences, 2021)", "key": {"OR1A1 [1]": {"molecular_target": "T1, OR1A1 (Homo sapiens, UniProt Q9P1Q5)", "T1 sequence (Q9P1Q5 1-309)": "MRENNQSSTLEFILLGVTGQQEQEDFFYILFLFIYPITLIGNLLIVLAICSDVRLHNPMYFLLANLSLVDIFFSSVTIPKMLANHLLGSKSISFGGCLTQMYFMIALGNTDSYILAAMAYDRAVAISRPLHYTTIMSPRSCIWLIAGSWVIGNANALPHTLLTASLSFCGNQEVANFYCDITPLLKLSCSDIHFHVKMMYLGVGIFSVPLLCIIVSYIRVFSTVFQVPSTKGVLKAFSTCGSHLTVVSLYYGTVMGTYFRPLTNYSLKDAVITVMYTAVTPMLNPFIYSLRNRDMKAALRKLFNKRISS", "conditions": "cited from earlier work"}, "OR1A1 [2]": {"molecular_target": "T1, OR1A1", "experiment": "Dual-Glo luciferase reporter gene assay, OR1A1 in Hana3A cells", "assay_type": "cell-based", "design": "The open reading frames of ORs were amplified using Phusion polymerase; Rho-tag (first 20 amino acids of human rhodopsin) (N); expressed in transfected cells; host or cells: Hana3A cells (derived from HEK293T), pCI vector; co-transfected with human RTP1S, M3 receptor, CRE-Luc and SV40-RL", "conditions": "OR1A1; for normilazed value = (L-400/R-400): three replicates", "protocol": "(§1) Hana3A cells were maintained in minimal essential medium containing 10% FBS (vol/vol) with penicillin-streptomycin and amphotericin B (1/200 each vol/vol) at 37 °C and 5% CO2. Hana3A cells are derived from HEK293T [57] and are optimized for OR studies as shown in several studies, compared to earlier OR expression in Sf9 insect cells in Gat et al., and in Xenopus oocytes, COS-7, PC12h and CHO-K1 cells in Katada et al..\n(§2) The Dual-Glo luciferase assay system (Promega, Madison, WI, USA) was used to evaluate the functionality of wild-type OR1A1 and OR2W1 in an in vitro system. The open reading frames of ORs were amplified using Phusion polymerase (Thermo Fisher Scientific, Waltham, MA, USA). Amplified fragments were cloned into pCI expression vector (Promega, Madison, WI, USA) containing the sequence encoding the first 20 amino acids of human rhodopsin (Rho-tag) at N-terminal. Hana3A cells have been cultured and plated the day before transfection with 6 mL at 1/10 of a 100% confluence 100 mm plate into 96-well plates coated with poly D-lysine. After overnight incubation, the required genes were transfected using, for each plate, 5 ng SV40-RL, 10 ng CRE-Luc, 5 ng human RTP1S [72], 2.5 ng M3 receptor [73] and 5 ng of receptor (OR1A1, OR2W1 or empty vector Rho-pCI) plasmid. After around 18 h of transfection, cells were stimulated during 3.5 h by 25 µL of odorant diluted in CD293 + 1% glutamine + 30 µM CuCl2. Odorants were obtained from Sigma Aldrich (St. Louis, MO, USA) and diluted at 1 M concentration in DMSO as stock solutions. […] The luminescence of Firefly (Luc) and Renilla (Rluc) luciferase, were then sequentially monitored by injecting the corresponding substrate following the supplier’s protocol. The activity in each well was normalized as (Luc-400)/(Rluc-400). The response of the receptor was also normalized to its basal activity as (NLX/NL0)-1 where NL0 is the normalized luminescence value at 0 µM of odorant and NLX the value at X µM. […] Raw results were first analyzed with Excel (Microsoft Corporation, Albuquerque, NM, USA) and dose response curves, max efficacy and EC50 have been determined with GraphPrism 6 software (GraphPad Software, La Jolla, CA, USA). Areas under the curves (AUC) were calculated in Excel by summing all the OR responses at different concentrations for each odorant."}, "OR2W1 [3]": {"molecular_target": "T2, OR2W1 (Homo sapiens, UniProt Q9Y3N9)", "T2 sequence (Q9Y3N9 1-320)": "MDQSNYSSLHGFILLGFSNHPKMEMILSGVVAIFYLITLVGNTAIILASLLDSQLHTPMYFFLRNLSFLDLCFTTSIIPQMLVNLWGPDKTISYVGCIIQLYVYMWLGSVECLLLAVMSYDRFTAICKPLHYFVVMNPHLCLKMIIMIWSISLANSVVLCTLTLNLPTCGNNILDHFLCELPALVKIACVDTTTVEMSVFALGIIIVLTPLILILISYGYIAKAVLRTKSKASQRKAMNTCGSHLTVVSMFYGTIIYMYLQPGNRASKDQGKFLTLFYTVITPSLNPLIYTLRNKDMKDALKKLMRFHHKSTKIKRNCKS", "conditions": "cited from earlier work"}, "OR2W1 [4]": {"molecular_target": "T2, OR2W1", "experiment": "Dual-Glo luciferase reporter gene assay, OR2W1 in Hana3A cells", "assay_type": "cell-based", "design": "The open reading frames of ORs were amplified using Phusion polymerase; Rho-tag (first 20 amino acids of human rhodopsin) (N); expressed in transfected cells; host or cells: Hana3A cells (derived from HEK293T), pCI vector; co-transfected with human RTP1S, M3 receptor, CRE-Luc and SV40-RL", "conditions": "OR2W1; for normilazed value = (L-400/R-400): log[molecule], three replicates", "protocol": "as §1, §2"}, "[5]": {"conditions": "log(agonist) vs. response (three parameters), 95% CI (profile likelihood), normalized (L-400/R-400)"}}, "note": "Values joined by “and” are separate entries in the source; they are usually repeats but may differ in a detail not shown here. Identical values can stand only once."}
{"smiles": "O=C(c1ccccc1)c1ccccc1", "note": "[Benzophenone]", "values": [{"measurement": "Class (agonist / non-agonist / conflicting info.) for OR1A1", "setting": "OR1A1 [1]", "result": "agonist"}, {"measurement": "Bottom", "setting": "OR1A1 [2]; [5]", "result": "-1.851 to 2.543"}, {"measurement": "Top", "setting": "OR1A1 [2]; [5]", "result": "11.67 to 14.46"}, {"measurement": "normilazed value = (L-400/R-400)", "setting": "OR1A1 [2]; log[molecule], M = -3.5", "result": "7.459 and 7.533 and 8.1639"}, {"measurement": "normilazed value = (L-400/R-400)", "setting": "OR1A1 [2]; log[molecule], M = -3.75", "result": "11.5068 and 9.986 and 11.6353"}, {"measurement": "normilazed value = (L-400/R-400)", "setting": "OR1A1 [2]; log[molecule], M = -4", "result": "12.912 and 14.5062 and 13.7456"}, {"measurement": "normilazed value = (L-400/R-400)", "setting": "OR1A1 [2]; log[molecule], M = -4.25", "result": "14.2415 and 16.6502 and 17.5965"}, {"measurement": "normilazed value = (L-400/R-400)", "setting": "OR1A1 [2]; log[molecule], M = -4.5", "result": "12.7776 and 13.5787 and 13.5772"}, {"measurement": "normilazed value = (L-400/R-400)", "setting": "OR1A1 [2]; log[molecule], M = -4.75", "result": "11.0413 and 12.4085 and 13.0495"}, {"measurement": "normilazed value = (L-400/R-400)", "setting": "OR1A1 [2]; log[molecule], M = -5", "result": "8.171 and 9.262 and 9.035"}, {"measurement": "normilazed value = (L-400/R-400)", "setting": "OR1A1 [2]; log[molecule], M = -5.25", "result": "6.73 and 6.359 and 7.725"}, {"measurement": "normilazed value = (L-400/R-400)", "setting": "OR1A1 [2]; log[molecule], M = -5.5", "result": "4.815 and 4.814 and 5.195"}, {"measurement": "normilazed value = (L-400/R-400)", "setting": "OR1A1 [2]; log[molecule], M = -5.75", "result": "3.111 and 2.689 and 2.548"}, {"measurement": "normilazed value = (L-400/R-400)", "setting": "OR1A1 [2]; log[molecule], M = -6", "result": "2.109 and 2.273 and 2.067"}, {"measurement": "EC50", "setting": "OR1A1 [2]; three-parameter fit, 95% CI (profile likelihood)", "result": "2.47 to 8.3", "unit": "µM"}, {"measurement": "LogEC50", "setting": "OR1A1 [2]; three-parameter fit, 95% CI (profile likelihood), log[molecule], M", "result": "-5.608 to -5.081"}, {"measurement": "Class (agonist / non-agonist / antagonist / conflicting info.) for OR2W1", "setting": "OR2W1 [3]", "result": "agonist"}, {"measurement": "Bottom", "setting": "OR2W1 [4]; [5]", "result": "9.831 to 25.58"}, {"measurement": "Top", "setting": "OR2W1 [4]; [5]", "result": "33.11 to 38.76"}, {"measurement": "normilazed value = (L-400/R-400)", "setting": "OR2W1 [4]; M = -3.5", "result": "18.7324 and 22.6176 and 22.52"}, {"measurement": "normilazed value = (L-400/R-400)", "setting": "OR2W1 [4]; M = -3.75", "result": "27.3072 and 27.4246"}, {"measurement": "normilazed value = (L-400/R-400)", "setting": "OR2W1 [4]; M = -4", "result": 38.4836}, {"measurement": "normilazed value = (L-400/R-400)", "setting": "OR2W1 [4]; M = -4.25", "result": "38.5091 and 37.4777"}, {"measurement": "normilazed value = (L-400/R-400)", "setting": "OR2W1 [4]; M = -4.5", "result": "37.1848 and 47.4935"}, {"measurement": "normilazed value = (L-400/R-400)", "setting": "OR2W1 [4]; M = -4.75", "result": "39.8168 and 41.5774 and 37.3522"}, {"measurement": "normilazed value = (L-400/R-400)", "setting": "OR2W1 [4]; M = -5", "result": "38.9191 and 40.737 and 39.7699"}, {"measurement": "normilazed value = (L-400/R-400)", "setting": "OR2W1 [4]; M = -5.25", "result": "38.6807 and 38.6347 and 47.5267"}, {"measurement": "normilazed value = (L-400/R-400)", "setting": "OR2W1 [4]; M = -5.5", "result": "41.7726 and 40.3216 and 44.1867"}, {"measurement": "normilazed value = (L-400/R-400)", "setting": "OR2W1 [4]; M = -6", "result": "27.5667 and 27.048"}]}
